Measurements published in US6235739A, “5-phenyl-3-pyridazinone derivatives and drug composition containing the same” (Nikken Chemicals Co., Ltd., priority 1996, dated 2001).

Legend:
Type IV PDE = experiment: Measurement of type IV PDE inhibiting activity; format: biochemical; settings: type IV PDE partially purified from neutrophils; 3H-cAMP substrate; 30 minutes; read-out: Type IV PDE Inhibitory activity IC50
Procedure: Type I, III, IV, and V PDE isozymes were prepared to study the PDE inhibiting activities and selectivities of the compound of the invention [Trends Pharmacol Sci., 12, 19-27 (1992)]. Type I PDE was purchased from Sigma Corp. Type III and V PDE isozymes were partially purified from rats platelets, and type IV PDE isozyme was partially purified from neutrophils. Each enzyme source was homogenized in a buffer (pH 6.5) containing 20 mM bisTris, 2 mM EDTA, 0.1 mM PMSF (phenylmethylsulfonyl fluoride), 5 mM 2-mercaptoethanol, 0.01 mM pepstatin, and 0.01 mM leupeptin and was centrifuged at 30,000G for 30 minutes to obtain a supernatant, which was applied to a column (1.5×20 cm) packed with an ion-exchange resin (Q-sepharose First Flow, Pharmacia Corp.) and was eluted with sodium acetate gradient of 0 to 1M. Partially purified isozymes were identified by observing the effects of conventional inhibitor.
Each PDE isozyme and test compounds dissolved in DMSO (i.e., dimethyl sulfoxide) were added to 50 mM Tris-HCl buffer containing 5 mM magnesium chloride. ^3 H-cAMP (for type III and IV PDE) or ^3 H-cGMP (for type I and V PDE) were added as substrates and were reacted for 30 minutes. The reaction was terminated by placing the test tube in boiling water of 100° C. for 5 minutes. The nucleotides formed by PDE were broken down by 5'-nucleotidase to ^3 H-adenosine or 3H-guanosine. The unreacted substrate and reaction product were separated through a column packed with an ion-exchange resin (QAE sephadex). The eluted ^3 H-nucleoside was measured for its radioactivity by a liquid scintillation counter. The inhibiting activities of the compound of the present invention against types I, III and V are 1/10 or less than that against type IV.

[1] = test system: antigen-induced bronchospasm; experiment: Inhibitory effect on antigen-induced bronchospasm (anti-asthmatic action); format: in vivo; settings: Cavia porcellus, iv; ovalbumin-sensitized Hartley male guinea pig; intravenously 10 minutes before 0.2 mg/kg OA i.v.; Konzett-Roessler method; read-out: Action for suppressing antigen-induced bronchospasms ED50
Procedure: A Hartley male guinea pig was sensitized by intramuscular administration of […] Ovalbumin (OA) on first day and fourth day, and used after 24th day. A trachial canula was introduced in the guinea pig anesthetized with pentobarbital and artificial ventilation was performed 25 to 29 days after the first sensitization. The overflow of the ventilation was measured by the Konzett-Roessler method, while 0.2 mg/kg OA were administered intravenously. The test compound was dissolved in polyethylene glycol 400 and intravenously administered 10 minutes before administration of the antigens.

rat neutrophils = experiment: Inhibitory effects on activity of rat neutrophils (release of super oxide anions); format: cell-based; settings: Neutrophil, stimulation with 0.3 μM calcium ionophore A23187, chemiluminescence, read-out: Action for suppressing release of super oxide anions from rat neutrophils IC50
Procedure: The release of super oxide anions was measured so as to study the inhibitory effects of the compound on inflammatory leukocytes, that is, neutrophils.
Blood sample was obtained from Wister rats anesthetized with ether. It was superposed on a blood cell separation solution (Polymorphoprep 1.113, made by Naicomet Co. (phonetic)) and the neutrophils were separated by centrifugation. The neutrophils were resuspended in a Hank's balanced salt solution at a concentration of 0.5×10^4 cell/ml. 0.1 mM of Lusigenin and the test substance dissolved in DMSO were added to 2 ml of the cell-suspension. The chemiluminescence generated by stimulation of 0.3 μM calcium ionophore A23187 was measured by a chemiluminescence reader so as to evaluate the release of super oxide anions.

Row | Structure (SMILES) | IC50 (Type IV PDE) [nM] | IC50 (rat neutrophils) [nM] | ED50 [1] [mg/kg]
1 | CCCCOc1cc(C2C=NNC(=O)C2)ccc1OC (stereo not shown) [Compound No. 13, 5-(3-butoxy-4-methoxyphenyl)-2,3,4,5-tetrahydropyridazin-3-one] | 3400 |  | 1.4
2 | COc1ccc(C2C=NNC(=O)C2)cc1OC (stereo not shown) [Compound No. 1, 5-(3,4-dimethoxyphenyl)-2,3,4,5-tetrahydropyridazin-3-one] | 9300 | 14000 | 
3 | COc1ccc(C2C=NN(C)C(=O)C2)cc1OCC(C)(C)C (stereo not shown) [Compound No. 21, 5-[3-(2,2-dimethylpropoxy)-4-methoxyphenyl]-2-methyl-2,3,4,5-tetrahydropyridazin-3-one] | 3900 |  | 
4 | COc1ccc(C2C=NNC(=O)C2)cc1OCc1ccccc1 (stereo not shown) [Compound No. 7, 5-(3-benzyloxy-4-methoxyphenyl)-2,3,4,5-tetrahydropyridazin-3-one] | 8700 |  | 
5 | CCC(CC)COc1cc(C2C=NN(C)C(=O)C2)ccc1OC (stereo not shown) [Compound No. 24, 5-[4-methoxy-3-(2-ethylbutoxy)phenyl]-2-methyl-2,3,4,5-tetrahydropyridazin-3-one] | 340 |  | 
6 | CCCCOc1cc(C2C=NN(C)C(=O)C2)ccc1OC (stereo not shown) [Compound No. 23, 5-(3-butoxy-4-methoxyphenyl)-2-methyl-2,3,4,5-tetrahydropyridazin-3-one] | 6300 |  | 0.53
7 | COc1ccc(C2C=NN(c3ccccc3)C(=O)C2)cc1OC (stereo not shown) [Compound No. 2, 5-(3,4-dimethoxyphenyl)-2-phenyl-2,3,4,5-tetrahydropyridazin-3-one] | 4200 | 1700 | 
8 | COc1ccc(C2CC(=O)NN=C2c2ccccc2)cc1OC1CCCC1 (stereo not shown) [Compound No. 28, 5-(3-cyclopentyloxy-4-methoxyphenyl)-6-phenyl-2,3,4,5-tetrahydropyridazin-3-one] | 19000 |  | 
9 | COc1ccc(C2C=NN(C)C(=O)C2)cc1OCC1CC1 (stereo not shown) [Compound No. 18, 5-(3-cyclopropylmethyloxy-4-methoxyphenyl) -2-methyl-2,3,4,5-tetrahydropyridazin-3-one] | 4600 |  | 0.12
10 | CCC(CC)COc1cc(C2C=NNC(=O)C2)ccc1OC (stereo not shown) [Compound No. 14, 5-[3-(2-ethylbutoxy)-4-methoxyphenyl]-2,3,4,5-tetrahydropyridazin-3-one] | 2300 |  | 
11 | COc1ccc(C2C=NNC(=O)C2)cc1OCC(C)(C)C (stereo not shown) [Compound No. 15, 5-[3-(2,2-dimethylpropoxy)-4-methoxyphenyl]-2,3,4,5-tetrahydropyridazin-3-one] | 4800 |  | 
12 | COc1ccc(C2CC(=O)NN=C2C)cc1OC (stereo not shown) [compound 27, 5-(3,4-dimethoxyphenyl)-6-methyl-2,3,4 5-tetrahydropyridazin-3-one] | 18000 | 15000 | 

Now from value to molecule, other results behind:

Row | IC50 (Type IV PDE) [nM] | IC50 (rat neutrophils) [nM] | Structure (SMILES) | ED50 [1] [mg/kg]
13 | 1100 |  | COc1ccc(C2C=NNC(=O)C2)cc1OCC(C)C (stereo not shown) [Compound No. 12, 5-[4-methoxy-3-(2-methylpropoxy)phenyl]-2,3,4,5-tetrahydropyridazin-3-one] | 1.05
14 | 1600 |  | COc1ccc(C2C=NNC(=O)C2)cc1OCCc1ccccc1 (stereo not shown) [Compound No. 8, 5-(4-methoxy-3-phenethyloxyphenyl)-2,3,4,5-tetrahydropyridazin-3-one] | 4.2
15 | 2700 |  | COc1ccc(C2C=NN(C)C(=O)C2)cc1OCCc1ccccc1 (stereo not shown) [Compound No. 19, 5-(4-methoxy-3-phenethyloxyphenyl) -2-methyl-2,3,4,5-tetrahydropyridazin-3-one] | 
16 | 180 | 130 | COc1ccc(C2C=NN(Cc3ccccc3)C(=O)C2)cc1OC1CCCC1 (stereo not shown) [Compound No. 6, 2-benzyl-5-(3-cyclopentyloxy-4-methoxyphenyl)-2,3,4,5-tetrahydropyridazin-3-one] | 3.2
17 | 2500 |  | COc1ccc(C2CNNC(=O)C2)cc1OC1CCCC1 (stereo not shown) [Compound No. 4, 5-(3-cyclopentyloxy-4-methoxyphenyl)hexahydropyridazin-3-one] | 2.1
18 | 670 | 430 | COc1ccc(C2C=NN(C)C(=O)C2)cc1OC1CCCC1 (stereo not shown) [Compound No. 5, 5-(3-cyclopentyloxy-4-methoxyphenyl)-2-methyl-2,3,4,5-tetrahydropyridazin-3-one] | 
19 | 1400 |  | COc1ccc(C2C=NN(C)C(=O)C2)cc1OCC1(c2ccccc2)CC1 (stereo not shown) [Compound No. 26, 5-[4-methoxy-3-[(1-phenylcyclopropyl)methyloxy]phenyl]-2-methyl-2,3,4,5-tetrahydropyridazin-3-one] | 
20 | 1600 |  | COc1ccc(C2C=NNC(=O)C2)cc1OCC1CC1 (stereo not shown) [Compound No. 10, 5-(3-cyclopropylmethyloxy-4-methoxyphenyl)-2,3,4,5-tetrahydropyridazin-3-one] | 0.074
21 | 2700 |  | COc1ccc(C2C=NN(C)C(=O)C2)cc1OCC1(C)CC1 (stereo not shown) [Compound No. 22, 5-[4-methoxy-3-[(1-methylcyclopropyl)methyloxy]phenyl]-2-methyl-2,3,4,5-tetrahydropyridazin-3-one] | 2.37
22 | 1200 |  | COc1ccc(C2C=NNC(=O)C2)cc1OCC1(C)CC1 (stereo not shown) [Compound No. 11, 5-[4-methoxy-3-[(1-methylcyclopropyl)methyloxy]phenyl]2,3,4,5-tetrahydropyridazin-3-one] | 0.82
23 | 170 |  | COc1ccc(C2C=NNC(=O)C2)cc1OC1Cc2ccccc2C1 (stereo not shown) [Compound No. 9, 5-[3-(2-indanyloxy)-4-methoxyphenyl]-2,3,4,5-tetrahydropyridazin-3-one] | 
24 | 420 | 30 | COc1ccc(C2C=NNC(=O)C2)cc1OC1CCCC1 (stereo not shown) [Compound No. 3, 5-(3-cyclopentyloxy-4-methoxyphenyl)-2,3,4,5-tetrahydropyridazin-3-one] | 0.4
25 | 2300 |  | COc1ccc(C2C=NN(C)C(=O)C2)cc1OCC(C)C (stereo not shown) [Compound No. 20, 5-[4-methoxy-3-(2-methylpropoxy)phenyl]-2-methyl-2,3,4,5-tetrahydropyridazin-3-one] | 0.97
26 | 630 |  | COc1ccc(C2C=NN(C)C(=O)C2)cc1OC1Cc2ccccc2C1 (stereo not shown) [Compound No. 17, 5-[3-(2-indanyloxy)-4-methoxyphenyl]-2-methyl-2,3,4,5-tetrahydropyridazin-3-one] | 
27 | 330 |  | COc1ccc(C2C=NNC(=O)C2)cc1OCCCCCc1ccccc1 (stereo not shown) [Compound No. 16, 5-[4-methoxy-3-(5-phenylpentyloxy)phenyl]-2,3,4,5-tetrahydropyridazin-3-one] | 
28 | 750 |  | COc1ccc(C2C=NNC(=O)C2)cc1OCC1(c2ccccc2)CC1 (stereo not shown) [Compound No. 25, 5-[4-methoxy-3-[(1-phenylcyclopropyl)methyloxy]phenyl]-2,3,4,5-tetrahydropyridazin-3-one] | 
